Laboratory results: BindingDB's records for doi:10.1016/j.chembiol.2017.03.002 (Jagiellonian University, 2017)

Biological target: T1, Ubiquitin carboxyl-terminal hydrolase 2 [258-605] (Homo sapiens, UniProt O75604)
T1 construct: 258-605
T1 sequence (O75604 whole entry): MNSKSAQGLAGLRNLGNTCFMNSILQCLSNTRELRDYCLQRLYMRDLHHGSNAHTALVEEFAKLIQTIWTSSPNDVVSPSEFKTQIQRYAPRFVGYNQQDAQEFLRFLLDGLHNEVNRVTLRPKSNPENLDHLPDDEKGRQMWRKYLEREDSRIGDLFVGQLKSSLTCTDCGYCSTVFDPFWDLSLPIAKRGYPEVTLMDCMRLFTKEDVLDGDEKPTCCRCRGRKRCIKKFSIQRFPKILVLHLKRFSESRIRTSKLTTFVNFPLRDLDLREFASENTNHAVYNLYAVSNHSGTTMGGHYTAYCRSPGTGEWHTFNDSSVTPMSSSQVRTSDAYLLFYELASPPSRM
Test: Ub-AMC-Hydrolysis Assay
Method: The assays were performed using Infinite 200 PRO - Tecan plate reader and 96-well, black Greiner microplates in a […] reaction volume. […]

COC(=O)C1CC[C@@]2(C)[C@H](CC[C@@H]3[C@@H]2CC[C@]2(C)[C@@H]([C@H](C)CCC(=O)O)CC[C@@H]32)C1 (stereo partly specified) [LCAE]
IC50: 5.8 µM
